# Measurements as given in ChEMBL document CHEMBL1212733, “Chemical genomics in Escherichia coli identifies an inhibitor of bacterial lipoprotein targeting” (Nat Chem Biol, 2009).
# The source made the active and inactive calls. No cut-off for these calls is given here.
# Key:
# Escherichia coli [1] = experiment: Antibacterial activity against Escherichia coli K-12 MG1655 after 16 hrs by microbroth dilution method; type: functional; settings: K-12 MG1655, 16 h
# [2] = molecular target: Small ribosomal subunit protein bS18 (Escherichia coli (strain K12)) (UniProt P0A7T7); experiment: Inhibition of IPTG-stimulated Escherichia coli K-12 rpSR at 4 fold MIC by microarray analysis
# Escherichia coli [3] = experiment: Antibacterial activity against Escherichia coli ATCC 25922 after 16 hrs by microbroth dilution method; type: functional; settings: ATCC 25922, 16 h
# [4] = test system: Stenotrophomonas maltophilia; experiment: Antibacterial activity against Stenotrophomonas maltophilia B22020 after 16 hrs by microbroth dilution method; type: functional; settings: B22020, 16 h
# Bacillus subtilis = experiment: Antibacterial activity against Bacillus subtilis 168 after 16 hrs by microbroth dilution method; type: functional; settings: subsp. subtilis str. 168, 16 h
# HeLa = experiment: Cytotoxicity against human HeLa cells after 24 hrs by Cell Titre-Glo luminescent assay; type: cell-based
# Pseudomonas aeruginosa = experiment: Antibacterial activity against Pseudomonas aeruginosa PAO1 after 16 hrs by microbroth dilution method; type: functional; settings: PAO1, 16 h
# Micrococcus luteus = experiment: Antibacterial activity against Micrococcus luteus after 16 hrs by microbroth dilution method; type: functional
# Staphylococcus aureus = experiment: Antibacterial activity against Staphylococcus aureus after 16 hrs by microbroth dilution method; type: functional
# Candida albicans = experiment: Antifungal activity against Candida albicans after 16 hrs by microbroth dilution method; type: functional
# Burkholderia cepacia = experiment: Antibacterial activity against Burkholderia cepacia B154408 after 16 hrs by microbroth dilution method; type: functional; settings: B154408, 16 h
# [5] = molecular target: T1, Dihydrofolate synthase/folylpolyglutamate synthase (Escherichia coli (strain K12)) (UniProt P08192); experiment: Inhibition of IPTG-stimulated Escherichia coli K-12 folC at 4 fold MIC by microarray analysis
# T1 sequence (whole entry): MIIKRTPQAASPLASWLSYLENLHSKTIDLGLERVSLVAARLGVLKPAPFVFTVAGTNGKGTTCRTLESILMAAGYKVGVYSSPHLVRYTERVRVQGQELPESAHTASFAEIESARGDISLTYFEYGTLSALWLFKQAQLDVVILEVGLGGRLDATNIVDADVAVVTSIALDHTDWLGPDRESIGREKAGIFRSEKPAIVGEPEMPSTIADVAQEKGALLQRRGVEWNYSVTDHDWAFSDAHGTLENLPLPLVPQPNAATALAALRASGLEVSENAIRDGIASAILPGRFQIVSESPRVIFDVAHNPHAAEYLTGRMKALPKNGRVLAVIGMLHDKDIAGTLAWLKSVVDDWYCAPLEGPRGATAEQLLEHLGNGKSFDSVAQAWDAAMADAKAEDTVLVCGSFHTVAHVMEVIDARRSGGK
# [6] = molecular target: T2, Outer membrane protein TolC (Escherichia coli (strain K12)) (UniProt P02930); experiment: Inhibition of IPTG-stimulated Escherichia coli K-12 tolC at 8 fold MIC by microarray analysis
# T2 sequence (whole entry): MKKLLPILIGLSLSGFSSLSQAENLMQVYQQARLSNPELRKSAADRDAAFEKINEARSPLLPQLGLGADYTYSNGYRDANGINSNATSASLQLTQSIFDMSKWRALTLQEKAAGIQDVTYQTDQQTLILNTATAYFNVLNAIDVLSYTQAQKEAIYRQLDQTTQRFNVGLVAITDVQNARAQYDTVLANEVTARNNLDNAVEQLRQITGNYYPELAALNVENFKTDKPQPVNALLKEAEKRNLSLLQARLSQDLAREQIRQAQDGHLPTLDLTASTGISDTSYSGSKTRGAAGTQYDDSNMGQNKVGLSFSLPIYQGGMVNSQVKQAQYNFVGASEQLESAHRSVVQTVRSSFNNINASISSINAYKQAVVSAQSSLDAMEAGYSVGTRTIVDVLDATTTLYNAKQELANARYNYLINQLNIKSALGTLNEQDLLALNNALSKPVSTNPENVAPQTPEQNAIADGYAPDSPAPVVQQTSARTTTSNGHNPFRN
# [7] = molecular target: T2, Outer membrane protein TolC (Escherichia coli (strain K12)); experiment: Inhibition of IPTG-stimulated Escherichia coli K-12 tolC at 4 fold MIC by microarray analysis
# [8] = molecular target: tRNA threonylcarbamoyladenosine biosynthesis protein TsaE (Escherichia coli (strain K12)) (UniProt P0AF67); experiment: Inhibition of IPTG-stimulated Escherichia coli K-12 yjeE at 8 fold MIC by microarray analysis
# [9] = molecular target: Small ribosomal subunit protein bS18 (Escherichia coli (strain K12)) (UniProt P0A7T7); experiment: Inhibition of IPTG-stimulated Escherichia coli K-12 rpSR at 8 fold MIC by microarray analysis
# [10] = molecular target: tRNA threonylcarbamoyladenosine biosynthesis protein TsaE (Escherichia coli (strain K12)) (UniProt P0AF67); experiment: Inhibition of IPTG-stimulated Escherichia coli K-12 yjeE at 4 fold MIC by microarray analysis
# [11] = molecular target: UDP-N-acetylglucosamine 1-carboxyvinyltransferase (Escherichia coli K-12) (UniProt P0A749); experiment: Inhibition of IPTG-stimulated Escherichia coli K-12 murA at 4 fold MIC by microarray analysis
# Chain of UDP-N-acetylglucosamine 1-carboxyvinyltransferase (Escherichia coli K-12) (P0A749 whole entry): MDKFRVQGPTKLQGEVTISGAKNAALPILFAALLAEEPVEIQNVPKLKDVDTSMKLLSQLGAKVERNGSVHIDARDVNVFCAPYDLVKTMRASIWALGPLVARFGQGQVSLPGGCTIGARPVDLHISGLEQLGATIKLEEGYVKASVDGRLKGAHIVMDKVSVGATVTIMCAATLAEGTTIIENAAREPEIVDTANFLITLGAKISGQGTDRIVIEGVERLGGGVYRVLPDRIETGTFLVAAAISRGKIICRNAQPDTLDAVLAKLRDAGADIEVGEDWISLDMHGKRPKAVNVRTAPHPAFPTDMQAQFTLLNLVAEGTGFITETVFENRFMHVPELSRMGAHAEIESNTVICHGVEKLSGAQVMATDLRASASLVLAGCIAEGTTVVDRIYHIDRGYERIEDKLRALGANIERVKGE
# [12] = molecular target: Protein YdfW (Escherichia coli (strain K12)) (UniProt P76164); experiment: Inhibition of IPTG-stimulated Escherichia coli K-12 ydfW at 4 fold MIC by microarray analysis
# Chain of Protein YdfW (Escherichia coli (strain K12)) (P76164 whole entry): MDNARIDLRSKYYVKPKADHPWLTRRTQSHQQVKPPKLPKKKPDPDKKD
# [13] = molecular target: Antitoxin YefM (Escherichia coli (strain K12)) (UniProt P69346); experiment: Inhibition of IPTG-stimulated Escherichia coli K-12 yefM at 4 fold MIC by microarray analysis
# Chain of Antitoxin YefM (Escherichia coli (strain K12)) (P69346 whole entry): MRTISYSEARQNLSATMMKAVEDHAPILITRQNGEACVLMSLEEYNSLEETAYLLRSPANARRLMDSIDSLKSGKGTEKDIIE
# [14] = molecular target: T2, Outer membrane protein TolC (Escherichia coli (strain K12)); experiment: Inhibition of IPTG-stimulated Escherichia coli K-12 tolC at 16 fold MIC by microarray analysis
# [15] = molecular target: UDP-N-acetylmuramoylalanine--D-glutamate ligase (Escherichia coli K-12) (UniProt P14900); experiment: Inhibition of IPTG-stimulated Escherichia coli K-12 murD at 4 fold MIC by microarray analysis
# Chain of UDP-N-acetylmuramoylalanine--D-glutamate ligase (Escherichia coli K-12) (P14900 whole entry): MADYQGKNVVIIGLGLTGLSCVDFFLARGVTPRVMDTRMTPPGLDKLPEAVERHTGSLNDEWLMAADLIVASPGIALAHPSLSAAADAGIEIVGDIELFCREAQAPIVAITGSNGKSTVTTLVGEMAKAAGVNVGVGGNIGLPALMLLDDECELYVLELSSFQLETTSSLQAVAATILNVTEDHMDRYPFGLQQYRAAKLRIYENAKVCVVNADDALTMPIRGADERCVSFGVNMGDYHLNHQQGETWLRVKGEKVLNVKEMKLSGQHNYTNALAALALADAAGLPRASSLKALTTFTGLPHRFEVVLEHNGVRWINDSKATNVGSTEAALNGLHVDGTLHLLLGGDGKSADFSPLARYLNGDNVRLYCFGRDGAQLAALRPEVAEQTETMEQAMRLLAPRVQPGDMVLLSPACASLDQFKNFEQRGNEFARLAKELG
# [16] = molecular target: Glycerate 3-kinase (Escherichia coli (strain K12)) (UniProt P77364); experiment: Inhibition of IPTG-stimulated Escherichia coli K-12 glxK at 4 fold MIC by microarray analysis
# Chain of Glycerate 3-kinase (Escherichia coli (strain K12)) (P77364 whole entry): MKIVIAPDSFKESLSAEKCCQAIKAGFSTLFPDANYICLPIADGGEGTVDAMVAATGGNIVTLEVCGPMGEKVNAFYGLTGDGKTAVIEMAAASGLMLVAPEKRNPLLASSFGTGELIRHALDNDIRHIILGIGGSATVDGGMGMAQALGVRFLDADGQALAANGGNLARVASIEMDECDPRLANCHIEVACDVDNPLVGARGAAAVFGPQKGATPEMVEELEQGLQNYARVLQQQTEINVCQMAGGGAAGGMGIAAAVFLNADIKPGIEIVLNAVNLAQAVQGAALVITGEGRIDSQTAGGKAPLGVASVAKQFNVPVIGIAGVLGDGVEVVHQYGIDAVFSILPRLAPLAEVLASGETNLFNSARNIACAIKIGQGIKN
# [17] = molecular target: Intermembrane phospholipid transport system binding protein MlaB (Escherichia coli (strain K12)) (UniProt P64602); experiment: Inhibition of IPTG-stimulated Escherichia coli K-12 yrbB at 4 fold MIC by microarray analysis
# Chain of Intermembrane phospholipid transport system binding protein MlaB (Escherichia coli (strain K12)) (P64602 whole entry): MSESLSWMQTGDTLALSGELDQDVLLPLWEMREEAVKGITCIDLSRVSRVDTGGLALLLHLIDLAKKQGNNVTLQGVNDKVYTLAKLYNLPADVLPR
# [18] = molecular target: 4-hydroxy-tetrahydrodipicolinate reductase (Escherichia coli (strain K12)) (UniProt P04036); experiment: Inhibition of IPTG-stimulated Escherichia coli K-12 dapB at 4 fold MIC by microarray analysis
# Chain of 4-hydroxy-tetrahydrodipicolinate reductase (Escherichia coli (strain K12)) (P04036 whole entry): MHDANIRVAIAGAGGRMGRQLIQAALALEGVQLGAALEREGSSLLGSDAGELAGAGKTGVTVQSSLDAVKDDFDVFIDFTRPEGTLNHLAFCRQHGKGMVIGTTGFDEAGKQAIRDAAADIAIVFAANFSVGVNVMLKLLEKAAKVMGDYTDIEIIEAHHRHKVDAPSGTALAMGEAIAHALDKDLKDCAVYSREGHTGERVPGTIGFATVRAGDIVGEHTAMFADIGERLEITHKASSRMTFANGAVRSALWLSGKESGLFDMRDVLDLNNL
# [19] = molecular target: Multifunctional CCA protein (Escherichia coli (strain K12)) (UniProt P06961); experiment: Inhibition of IPTG-stimulated Escherichia coli K-12 cca at 4 fold MIC by microarray analysis
# Chain of Multifunctional CCA protein (Escherichia coli (strain K12)) (P06961 whole entry): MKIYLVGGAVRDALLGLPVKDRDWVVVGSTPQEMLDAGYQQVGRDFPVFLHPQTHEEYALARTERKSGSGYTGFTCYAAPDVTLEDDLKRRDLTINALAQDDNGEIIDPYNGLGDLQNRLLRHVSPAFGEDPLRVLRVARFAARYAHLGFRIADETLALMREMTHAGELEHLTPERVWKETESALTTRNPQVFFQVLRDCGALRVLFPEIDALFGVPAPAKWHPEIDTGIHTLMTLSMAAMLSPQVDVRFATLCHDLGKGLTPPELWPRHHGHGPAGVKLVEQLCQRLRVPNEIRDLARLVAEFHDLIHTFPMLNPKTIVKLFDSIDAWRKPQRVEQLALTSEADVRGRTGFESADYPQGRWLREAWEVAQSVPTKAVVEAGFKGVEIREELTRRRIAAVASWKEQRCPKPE
# [20] = molecular target: Cell shape-determining protein MreC (Escherichia coli (strain K12)) (UniProt P16926); experiment: Inhibition of IPTG-stimulated Escherichia coli K-12 mreC at 4 fold MIC by microarray analysis
# [21] = molecular target: Phosphatidylglycerol--prolipoprotein diacylglyceryl transferase (Escherichia coli (strain K12)) (UniProt P60955); experiment: Inhibition of IPTG-stimulated Escherichia coli K-12 umpA at 4 fold MIC by microarray analysis
# Chain of Phosphatidylglycerol--prolipoprotein diacylglyceryl transferase (Escherichia coli (strain K12)) (P60955 whole entry): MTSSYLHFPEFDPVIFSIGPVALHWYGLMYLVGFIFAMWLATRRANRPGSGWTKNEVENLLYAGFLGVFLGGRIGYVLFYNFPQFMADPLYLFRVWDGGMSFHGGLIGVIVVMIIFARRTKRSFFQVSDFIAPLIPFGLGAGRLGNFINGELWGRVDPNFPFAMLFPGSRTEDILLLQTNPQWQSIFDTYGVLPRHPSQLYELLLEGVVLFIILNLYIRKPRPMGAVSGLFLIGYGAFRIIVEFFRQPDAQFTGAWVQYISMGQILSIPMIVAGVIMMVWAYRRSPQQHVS
# [22] = molecular target: T3, Uncharacterized protein YdiL (Escherichia coli (strain K12)) (UniProt P76196); experiment: Inhibition of IPTG-stimulated Escherichia coli K-12 ydiL at 16 fold MIC by microarray analysis
# T3 sequence (whole entry): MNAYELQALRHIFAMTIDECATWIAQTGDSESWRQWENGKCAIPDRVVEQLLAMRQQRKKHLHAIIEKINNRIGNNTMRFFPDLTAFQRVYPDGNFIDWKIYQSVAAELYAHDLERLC
# [23] = molecular target: Large ribosomal subunit protein uL2 (Escherichia coli (strain K12)) (UniProt P60422); experiment: Inhibition of IPTG-stimulated Escherichia coli K-12 rplB at 4 fold MIC by microarray analysis
# [24] = molecular target: Glutamyl-tRNA reductase (Escherichia coli (strain K12)) (UniProt P0A6X1); experiment: Inhibition of IPTG-stimulated Escherichia coli K-12 hemA at 4 fold MIC by microarray analysis
# Chain of Glutamyl-tRNA reductase (Escherichia coli (strain K12)) (P0A6X1 whole entry): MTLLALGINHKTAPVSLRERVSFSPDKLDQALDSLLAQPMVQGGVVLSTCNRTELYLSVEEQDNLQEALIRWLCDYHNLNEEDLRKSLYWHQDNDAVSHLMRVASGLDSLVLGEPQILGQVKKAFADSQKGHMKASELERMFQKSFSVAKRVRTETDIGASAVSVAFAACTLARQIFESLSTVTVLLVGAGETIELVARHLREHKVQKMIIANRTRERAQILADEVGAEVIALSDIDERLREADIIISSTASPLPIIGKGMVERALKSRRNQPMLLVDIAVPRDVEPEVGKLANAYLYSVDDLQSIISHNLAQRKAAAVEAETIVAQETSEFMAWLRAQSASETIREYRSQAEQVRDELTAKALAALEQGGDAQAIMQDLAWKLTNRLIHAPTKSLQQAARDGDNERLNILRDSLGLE
# [25] = molecular target: tRNA(Ile)-lysidine synthase (Escherichia coli (strain K12)) (UniProt P52097); experiment: Inhibition of IPTG-stimulated Escherichia coli K-12 mesJ at 4 fold MIC by microarray analysis
# Chain of tRNA(Ile)-lysidine synthase (Escherichia coli (strain K12)) (P52097 whole entry): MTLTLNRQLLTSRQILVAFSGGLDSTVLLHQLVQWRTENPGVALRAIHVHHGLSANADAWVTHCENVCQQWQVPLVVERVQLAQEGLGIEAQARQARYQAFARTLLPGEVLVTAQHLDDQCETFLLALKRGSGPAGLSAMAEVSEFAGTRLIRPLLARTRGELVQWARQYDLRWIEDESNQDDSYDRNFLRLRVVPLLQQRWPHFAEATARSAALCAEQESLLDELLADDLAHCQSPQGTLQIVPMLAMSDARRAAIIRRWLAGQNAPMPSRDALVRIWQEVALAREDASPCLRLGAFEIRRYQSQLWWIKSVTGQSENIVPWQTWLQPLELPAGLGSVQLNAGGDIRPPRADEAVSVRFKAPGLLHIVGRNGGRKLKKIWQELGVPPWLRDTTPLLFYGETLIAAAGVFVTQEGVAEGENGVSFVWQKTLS
# [26] = molecular target: Long-chain fatty acid transport protein (Escherichia coli (strain K12)) (UniProt P10384); experiment: Inhibition of IPTG-stimulated Escherichia coli K-12 fadl at 4 fold MIC by microarray analysis
# Chain of Long-chain fatty acid transport protein (Escherichia coli (strain K12)) (P10384 whole entry): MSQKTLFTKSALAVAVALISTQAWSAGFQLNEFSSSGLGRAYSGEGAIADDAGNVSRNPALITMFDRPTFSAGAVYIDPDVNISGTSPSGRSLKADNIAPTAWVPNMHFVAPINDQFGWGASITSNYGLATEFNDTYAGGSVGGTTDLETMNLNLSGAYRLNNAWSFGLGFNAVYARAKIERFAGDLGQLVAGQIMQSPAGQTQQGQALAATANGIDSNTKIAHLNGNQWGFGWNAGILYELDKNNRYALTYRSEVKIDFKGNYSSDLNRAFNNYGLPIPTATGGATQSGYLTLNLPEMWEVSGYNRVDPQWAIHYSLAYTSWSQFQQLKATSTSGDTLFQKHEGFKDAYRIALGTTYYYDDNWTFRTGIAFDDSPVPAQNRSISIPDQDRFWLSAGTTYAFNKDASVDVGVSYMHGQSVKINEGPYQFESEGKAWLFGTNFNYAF
# [27] = molecular target: T3, Uncharacterized protein YdiL (Escherichia coli (strain K12)); experiment: Inhibition of IPTG-stimulated Escherichia coli K-12 ydiL at 8 fold MIC by microarray analysis
# [28] = molecular target: Transcriptional regulatory protein BaeR (Escherichia coli (strain K12)) (UniProt P69228); experiment: Inhibition of IPTG-stimulated Escherichia coli K-12 baeR at 4 fold MIC by microarray analysis
# Chain of Transcriptional regulatory protein BaeR (Escherichia coli (strain K12)) (P69228 whole entry): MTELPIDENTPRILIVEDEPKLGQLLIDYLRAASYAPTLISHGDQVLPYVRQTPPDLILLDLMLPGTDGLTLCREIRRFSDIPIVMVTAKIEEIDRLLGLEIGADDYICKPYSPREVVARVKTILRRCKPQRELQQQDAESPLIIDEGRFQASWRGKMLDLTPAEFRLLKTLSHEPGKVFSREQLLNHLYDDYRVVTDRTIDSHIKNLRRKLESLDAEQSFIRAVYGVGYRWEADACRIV
# [29] = molecular target: Thymidylate kinase (Escherichia coli (strain K12)) (UniProt P0A720); experiment: Inhibition of IPTG-stimulated Escherichia coli K-12 tmk at 4 fold MIC by microarray analysis
# Chain of Thymidylate kinase (Escherichia coli (strain K12)) (P0A720 whole entry): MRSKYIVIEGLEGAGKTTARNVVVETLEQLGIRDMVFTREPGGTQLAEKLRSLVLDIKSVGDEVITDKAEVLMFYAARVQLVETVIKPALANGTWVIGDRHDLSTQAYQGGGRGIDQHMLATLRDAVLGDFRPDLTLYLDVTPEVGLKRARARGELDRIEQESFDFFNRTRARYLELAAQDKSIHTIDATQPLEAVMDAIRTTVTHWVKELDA
# [30] = molecular target: D-alanine--D-alanine ligase B (Escherichia coli K-12) (UniProt P07862); experiment: Inhibition of IPTG-stimulated Escherichia coli K-12 ddlB at 4 fold MIC by microarray analysis
# [31] = molecular target: Large ribosomal subunit protein bL28 (Escherichia coli (strain K12)) (UniProt P0A7M2); experiment: Inhibition of IPTG-stimulated Escherichia coli K-12 rpmB at 4 fold MIC by microarray analysis
# [32] = molecular target: Cell division protein FtsX (Escherichia coli (strain K12)) (UniProt P0AC30); experiment: Inhibition of IPTG-stimulated Escherichia coli K-12 ftsX at 4 fold MIC by microarray analysis
# Chain of Cell division protein FtsX (Escherichia coli (strain K12)) (P0AC30 whole entry): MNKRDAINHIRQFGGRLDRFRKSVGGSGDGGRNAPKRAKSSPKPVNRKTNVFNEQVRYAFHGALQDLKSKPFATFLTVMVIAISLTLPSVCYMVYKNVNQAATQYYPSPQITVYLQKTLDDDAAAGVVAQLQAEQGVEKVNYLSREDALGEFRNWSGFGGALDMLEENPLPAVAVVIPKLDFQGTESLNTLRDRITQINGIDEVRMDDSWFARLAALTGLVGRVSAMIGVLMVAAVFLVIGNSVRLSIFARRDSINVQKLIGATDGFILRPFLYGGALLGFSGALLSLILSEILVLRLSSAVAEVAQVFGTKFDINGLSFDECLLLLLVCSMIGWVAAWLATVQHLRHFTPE
smiles,measurement,setting,value
Clc1ccc(CCN2CN=C(SCc3ccc(Cl)cc3)NC2)cc1,MIC,Escherichia coli [1],32 µg/mL
COc1ccc(CN2CN=C(SCc3ccc(Cl)cc3)NC2)cc1OC,MIC,Escherichia coli [1],32 µg/mL
COc1ccc(CCN2CN=C(SCc3cc(Cl)cc(Cl)c3)NC2)cc1OC,MIC,Escherichia coli [1],16 µg/mL
COc1cc(Cc2cnc(N)nc2N)cc(OC)c1OC,inhibition,[2],Active
Clc1ccc(CSC2=NCN(CCc3ccccc3)CN2)cc1,MIC,Escherichia coli [1],8 µg/mL
CN1CN=C(SCc2ccc(Cl)cc2)NC1,MIC,Escherichia coli [3],256 µg/mL
same,MIC,Escherichia coli [1],8 µg/mL
same,MIC,[4],> 256 µg/mL
same,MIC,Bacillus subtilis,> 256 µg/mL
same,Activity,HeLa,> 256 µg/mL
same,MIC,Pseudomonas aeruginosa,> 256 µg/mL
same,MIC,Micrococcus luteus,> 256 µg/mL
same,MIC,Staphylococcus aureus,> 256 µg/mL
same,MIC,Candida albicans,> 256 µg/mL
same,MIC,Burkholderia cepacia,> 256 µg/mL
COc1ccc(CCN2CN=C(SCc3ccc(Cl)c(Cl)c3)NC2)cc1OC,MIC,Escherichia coli [1],8 µg/mL
COc1ccc(CCN2CN=C(SCc3cccc(Cl)c3)NC2)cc1OC,MIC,Escherichia coli [1],> 256 µg/mL
COc1ccc(CCN2CN=C(SCc3ccccc3Cl)NC2)cc1OC,MIC,Escherichia coli [1],> 256 µg/mL
Cc1cc(NS(=O)(=O)c2ccc(N)cc2)no1,inhibition,[5],Active
same,inhibition,[6],Active
same,inhibition,[7],Active
same,inhibition,[8],Active
same,inhibition,[9],Active
same,inhibition,[2],Active
same,inhibition,[10],Active
COc1ccc(CCN2CN=C(SCc3ccc([N+](=O)[O-])cc3)NC2)cc1OC,MIC,Escherichia coli [1],> 256 µg/mL
COc1ccc(CCN2CN=C(SCc3ccc(C)cc3)NC2)cc1OC,MIC,Escherichia coli [1],64 µg/mL
COc1ccc(CCN2CN=C(SCc3ccc(I)cc3)NC2)cc1OC,MIC,Escherichia coli [1],256 µg/mL
CN[C@@H]1[C@H](O)[C@H](NC)[C@H]2O[C@@]3(O)C(=O)C[C@@H](C)O[C@H]3O[C@@H]2[C@H]1O,inhibition,[8],Active
same,inhibition,[9],Active
same,inhibition,[2],Active
same,inhibition,[10],Active
O=CN(O)CCCP(=O)(O)O,inhibition,[11],Active
same,inhibition,[12],Active
same,inhibition,[13],Active
same,inhibition,[14],Active
same,inhibition,[15],Active
same,inhibition,[6],Active
same,inhibition,[16],Active
same,inhibition,[17],Active
same,inhibition,[7],Active
same,inhibition,[18],Active
same,inhibition,[19],Active
same,inhibition,[20],Active
same,inhibition,[21],Active
same,inhibition,[22],Active
same,inhibition,[23],Active
same,inhibition,[24],Active
same,inhibition,[25],Active
same,inhibition,[26],Active
same,inhibition,[27],Active
same,inhibition,[28],Active
same,inhibition,[29],Active
same,inhibition,[30],Active
same,inhibition,[31],Active
same,inhibition,[32],Active
same,inhibition,[10],Active
CCN1CN=C(SCc2ccc(Cl)cc2)NC1,MIC,Escherichia coli [1],8 µg/mL
COc1ccc(CSC2=NCN(CCc3ccc(OC)c(OC)c3)CN2)cc1,MIC,Escherichia coli [1],512 µg/mL
COc1cccc(CCN2CN=C(SCc3ccc(Cl)cc3)NC2)c1,MIC,Escherichia coli [1],16 µg/mL
COc1ccc(CCN2CN=C(SCc3ccc(Cl)cc3)NC2)cc1,MIC,Escherichia coli [1],64 µg/mL
COc1ccc(CCN2CN=C(SCc3ccccc3)NC2)cc1OC,MIC,Escherichia coli [3],8 µg/mL
same,MIC,Escherichia coli [1],256 µg/mL
same,MIC,[4],16 µg/mL
same,MIC,Bacillus subtilis,> 256 µg/mL
same,Activity,HeLa,> 256 µg/mL
same,MIC,Pseudomonas aeruginosa,32 µg/mL
same,MIC,Micrococcus luteus,> 256 µg/mL
same,MIC,Staphylococcus aureus,> 256 µg/mL
same,MIC,Candida albicans,> 256 µg/mL
same,MIC,Burkholderia cepacia,128 µg/mL
COc1ccc(CCN2CN=C(SCc3ccc(Br)cc3)NC2)cc1OC,MIC,Escherichia coli [1],8 µg/mL
